Assay results reported in patent US20150192570A1, “METHODS FOR DETERMINING WHETHER A CYTOMEGALOVIRUS INFECTION IN A TRANSPLANTED PATIENT IS SUCEPTIBLE TO INDUCE ALLOGRAFT REJECTION” (priority 2012, published 2015).

What was measured:
HAEC [1] = assay: Surface expression of HLA-E and total HLA-I on endothelial cultures after IFN-γ treatment (flow cytometry); assay type: cell-based, human; settings: IFN-γ 50 U/mL, 48 h
Method: (§1) A/ impact of IFN-γ treatment on surface expression of HLA-E (thick lines) and total HLA-I (dotted lines) molecules by endothelial cultures. MFI are indicated. B/ HLA-E-restricted CD8 T cells cytotoxicity toward endothelial cultures treated or not with IFN-γ. 103 ^51 Cr-labeled HAECs pretreated (closed circles) or not (open circle) with IFN-γ were co-cultured for 4 h with T cells at various E:T ratio. Cytotoxic activity was assessed trought measure of Chromium release in the supernatants. Percentages of specific lysis are indicated. Means and standard deviations of triplicate wells are shown for one representative experiments out of three performed. C/ HLA-E-restricted CD8 T cells cytokine production upon stimulation with endothelials cultures treated or not with IFN-γ. MART.22 T cells were fixed, permeabilized and stained for intracellular cytokines following 6 h of incubation with HAECs pretreated (black bars) or not (white bars) with INF-γ. Data are expressed as percentages of intracellular cytokine secreting T cells upon stimulation. D/ HLA-E-restricted CD8 T cells cytokine production upon stimulation with endothelials cultures treated or not by IFN-γ, in the presence of blocking antibodies. […] Data are expressed as percentages of intracellular TNF secreting T cells upon stimulation. […]

HAEC [2] = assay: Recognition (lysis, cytokine production) of IFN-γ treated endothelial cultures by MART.22; assay type: cell-based, human
Method: as §1, with “stimulation.” for “stimulation. D/ HLA-E-restricted CD8 T cells cytokine production upon stimulation with endothelials cultures treated or not by IFN-γ, in the presence of blocking antibodies.”
(§2) For cytokine/perforine/granzyme intracellular staining, 1×10^5 T cells were stimulated in the presence of Brefeldin A (Sigma-Aldrich, 10 μg/ml) with 2×10^5 target cells (B-EBV cells or HAEC) for 6 h at 37° C., in the presence or not of blocking Abs. […] Cells were then fixed with 4% paraformaldehyde (Sigma-Aldrich), labeled with specific mAbs and analyzed by flow cytometry.
Target cells were labeled with 100 μCi Na^51CrO4 (Oris Industrie, Gif-sur-Yvette, France) for 1 h at 37° C., and incubated 4 h at 37° C., with effectors T cells at various E/T ratios. […] Percentage of target cell lysis was calculated according to the following formula: [(experimental release−spontaneous release)/(maximum release−spontaneous release)]×100. Maximum and spontaneous releases were determined by, respectively, adding 0.1% Triton X-100 or medium to ^51Cr-labeled target cells in the absence of T cells.

[3] = molecular target: classical HLA-I molecules on IFN-γ treated HAEC#495; assay: cell-based or functional assay
[4] = molecular target: protective HLA-C molecules (KIR2DL2 ligands) expressed on HAEC; assay: cell-based or functional assay
[5] = test system: MART.22 HLA-E-restricted CD8 T cells; assay: TNF production by MART.22 T cells in response to .221 cells pulsed with synthetic peptides (intracellular TNF-α staining); assay type: cell-based, human; settings: .221 cells loaded with synthetic peptide
Method: For cytokine/perforine/granzyme intracellular staining, 1×10^5 T cells were stimulated in the presence of Brefeldin A (Sigma-Aldrich, 10 μg/ml) with 2×10^5 target cells (B-EBV cells or HAEC) for 6 h at 37° C., in the presence or not of blocking Abs. For peptide loading, target cells were incubated with peptides for 1 h at 37° C. before incubation with T cells. Cells were then fixed with 4% paraformaldehyde (Sigma-Aldrich), labeled with specific mAbs and analyzed by flow cytometry.

[6] = test system: MART.22 HLA-E-restricted CD8 T cells; assay: Peptide/HLA-E*0101 tetramer staining of MART.22 T cells by flow cytometry; assay type: binding, human; settings: PE-streptavidin tetramers, 1 h
Method: A/ TNF production in response to stimulation with .221 cells pulsed with synthetic peptides. .221 cells were incubated for 1 h with range concentrations of the indicated peptides before addition of MART.22 T cells. After 6 h, T cells were fixed, permeabilized and stained for intracellular TNF-α. Results are expressed as percentage of TNF-producing T cells. B/ Peptide-MHC tetramer staining of HLA-E-restricted CD8 T cells. MART.22 T cells were incubated for 1 h with biotyniled HLA-E monomers refolded with the indicated peptides and tetramerized with PE-coupled streptavidin. Peptide-HLA-E tetramers staining was assessed by flow cytometry and MFI are indicated.
Peptides VMAPRTLLL and VMAPRTLVL (HLA-A*01- and HLA-A*02-derived signal peptides respectively) with purity >85% were purchased from Eurogentec (Angers, France). HLA-E*0101/peptide monomers were generated by the recombinant protein facility of SFR26 (Nantes, France).
For membrane staining, 2×10^5 cells were incubated at 4° C. with 10 μg/ml of Ab (specific or isotype control) or tetramers for 30 min or 1 h respectively. When non-conjugated mAb were used, a second incubation with PE-conjugated goat F(ab′)2 fragment anti-Mouse IgG (Beckman Coulters) was performed. 5×10^4 cells were acquired in the viable cells gate on a FACScalibur flow cytometer using CellQuest software (Becton Dickinson).

[7] = test system: MART.22 HLA-E-restricted CD8 T cells; assay: TNF production by MART.22 against unrecognized endothelial culture HAEC#402 pulsed with synthetic peptides; assay type: cell-based, human; settings: HAEC#402 loaded with 10^2 μM of peptide
Method: A/ Reactivity of HLA-E-restricted T cells against unrecognized endothelial cultures pulsed with synthetic peptides. HAECs were incubated for 1 h with range concentrations of the indicated peptides before MART.22 T cells were added. After 6 h, T cells were fixed, permeabilized and stained for intracellular TNF-α. Results are expressed as percentage of TNF-producing T cells. B/ Impact of KIR2DL2-ligands expression by HAECs on HLA-E-restricted T cells alloreactivity. Percentages of TNF-producing MART.22 T cells are shown for HAECs with none, one or two protective HLA-C alleles. C/ Reactivity of HLA-E-restricted T cells against unrecognized endothelial cultures in the presence of blocking antibodies. HAECs were incubated with MART.22 T cells in the presence or not of indicated concentrations of blocking antobodies. After 6 h, T cells were fixed, permeabilized and stained for intracellular TNF-α. Results are expressed as percentage of TNF-producing T cells.
as §2

Compound: IFN-γ: recombinant human IFN-γ (50 U/mL, Imukin, Boehringer Ingelheim)
- HLA-E and total HLA-I surface expression on endothelial cells (HAEC [1]): enhances
- MART.22 reactivity against IFN-γ treated HAEC#116 (HAEC [2]; HAEC#116, unpublished data): completely abolished
- MART.22 mediated lysis and cytokine production (HAEC [2]; IFN-γ treated endothelial cells): decreased
- TNF-α producing T cells upon stimulation with HAEC#495 (HAEC [2]; after IFN-γ treatment, 61% untreated): 33%

Compound: KIR2DL2 expressed by MART.22 T cells (from UniProt P43627 22-348) (receptor)
- TNF-α producing T cells against IFN-γ treated endothelial cells at the maximal dose of mAb against classical HLA-I molecules [3]: 69%
- TNF producing T cells, endothelial cells with no appropriate HLA-C allele (HAEC#323) [4]: 75%
- TNF producing T cells, endothelial cells with only one appropriate HLA-C allele (HAEC#112, #331 and #495) [4]: 54%
- TNF producing T cells, mean value for endothelial cells with two appropriate HLA-C alleles (HAEC#116, #337 and #402) [4]: 18%
- TNF-producing T cells against HAEC#402 in the presence of anti-HLA-A/B/C Abs [4]: < 25%

Compound: VTAPRTVLL
- recognition of peptide-pulsed .221 cells by MART.22 [5]: not recognized at all

Compound: ILT-2 expressed by MART.22 T cells (from UniProt Q8NHL6 24-650) (receptor)
- TNF-α producing T cells against IFN-γ treated endothelial cells at the maximal dose of mAb against classical HLA-I molecules [3]: 69%

Compound: VTAPRTLLL
- recognition of peptide-pulsed .221 cells by MART.22 [5]: not recognized at all

Compound: CSCC[C@H](NC(=O)[C@@H](N)C(C)C)C(=O)N[C@@H](C)C(=O)N1CCC[C@H]1C(=O)N[C@@H](CCCNC(=N)N)C(=O)N[C@H](C(=O)N[C@@H](CC(C)C)C(=O)N[C@@H](CC(C)C)C(=O)N[C@@H](CC(C)C)C(=O)O)[C@@H](C)O [VMAPRTLLL]
- binding of HLA-E*0101 tetramers refolded with the peptide to MART.22 [6]: bind
- TNF secreting T cells [7]: 40%

Compound: VMAPRTLVL [HLA-A*02-derived signal peptide, identical to a CMV UL40 peptide]
- binding of HLA-E*0101 tetramers refolded with the peptide to MART.22 [6]: no significant binding
- recognition of peptide-pulsed .221 cells by MART.22 [5]: not recognized at all

Compound: CSCC[C@H](NC(=O)[C@@H](N)C(C)C)C(=O)N[C@@H](C)C(=O)N1CCC[C@H]1C(=O)N[C@@H](CCCNC(=N)N)C(=O)N[C@H](C(=O)N[C@H](C(=O)N[C@@H](CC(C)C)C(=O)N[C@@H](CC(C)C)C(=O)O)C(C)C)[C@@H](C)O [VMAPRTVLL]
- TNF secreting T cells [7]: 18%
